Data as given in patent US11071788B2, “Antibody drug conjugates of kinesin spindel protein (KSP) inhibitors with antiB7H3-antibodies” (BAYER PHARMA AKTIENGESELLSCHAFT, priority 2015, dated 2021).

Tests used:
NCI-H292 = experiment: Cytotoxicity MTT assay, NCI-H292; format: cell-based, human; conditions: Homo sapiens, NCI-H292, MTT assay
Description: (§1) Table 2 below lists the IC50 values of representative working examples from the assay described and the corresponding cytotoxicity data (MTT assay).

[1] = Cell permeability flux assay using Caco-2 cells; format: in vitro ADME; conditions: human; Caco-2, 2 hours incubation
KPL4 = experiment: Cytotoxicity MTT assay, KPL4; format: cell-based; conditions: KPL4, MTT assay
Description: as §1

[2] = system: MCF-7: human breast cancer cells, B7H3-positive; experiment: CTG cytotoxicity assay of anti-B7H3 ADCs, MCF-7; format: cell-based; conditions: MCF7, 72 h incubation, growth inhibition vs day 0
Description: The cells were cultivated according to the standard method using the growth media listed under C-1. […] The cells were then incubated in an incubator at 37° C., and 5% carbon dioxide. In a parallel plate, the cell vitality was determined at the start of the drug treatment (day 0) using the Cell Titer Glow (CTG) Luminescent Cell Viability Assay (Promega #G7573 and #G7571). To this end, 100 μl of the substance were added per cell batch, the plates were then covered with aluminium foil, shaken on the plate shaker at 180 rpm for 2 minutes, allowed to stand on the laboratory bench for 8 minutes and then measured using a luminometer (Victor X2, Perkin Elmer). The substrate detects the ATP content in the living cells, generating a luminescence signal of which the height is directly proportional to the vitality of the cells. […] From the measured data, the IC^50 of the growth inhibition in comparison to day 0 was calculated using the DRC (dose response curve) analysis spreadsheet with a 4-parameter fit.

[3] = system: Raji: human Burkitt's lymphoma cells, B7H3-negative; experiment: CTG cytotoxicity assay of anti-B7H3 ADCs, Raji; format: cell-based; conditions: 72 h incubation
Description: The analysis of the cytotoxic effects of the anti-B7H3 ADCs was carried out with various cell lines:
Raji: human Burkitt's lymphoma cells, DMSZ-ACC-319, standard medium: RPMI 1640; (Biochrom; # FG 1215, with stable glutamine)+10% FCS (Biochrom; # S0415), B7H3-negative.
The cells were cultivated by the standard method as stated by the American Tissue Culture Collection (ATCC) for the cell lines in question.
The cells were cultivated according to the standard method using the growth media listed under C-1. […] In a parallel plate, the cell vitality was determined at the start of the drug treatment (day 0) using the Cell Titer Glow (CTG) Luminescent Cell Viability Assay (Promega #G7573 and #G7571). To this end, 100 μl of the […] were added per cell batch, the plates were then covered with aluminium foil, shaken on the plate shaker at 180 rpm for 2 minutes, allowed to stand on the laboratory bench for 8 minutes and then measured using a luminometer (Victor X2, Perkin Elmer). The substrate detects the ATP content in the living cells, generating a luminescence signal of which the height is directly proportional to the vitality of the cells. […] From the measured data, the IC^50 of the growth inhibition in comparison to day 0 was calculated using the DRC (dose response curve) analysis spreadsheet with a 4-parameter fit. […]

Row | SMILES | IC50 (NCI-H292) [nM] | Papp B→A at 2 h [1] [×10⁻⁶ cm/s] | IC50 (KPL4) [nM] | IC50 [2] [nM] | IC50 [3] [nM]
1 | CC(C)(C)[C@H](c1cc(-c2cc(F)ccc2F)cn1Cc1ccccc1)N(CC[C@H](N)C(=O)NC(CCC(=O)O)C(=O)O)C(=O)CO.O=C(O)C(F)(F)F (stereo in doubt) [Example M25, N-{(2S)-2-Amino-4-[{(1R)-1-[1-benzyl-4-(2,5-difluorophenyl)-1H-pyrrol-2-yl]-2,2-dimethylpropyl}(glycoloyl)amino]butanoyl}-L-glutamic acid-trifluoroacetic acid (1:1)] | 500 | 0.81 | 500 |  | 
2 | CC(C)(C)[C@H](c1cc(-c2cc(F)ccc2F)cn1Cc1ccccc1)N(CCCN)C(=O)CO [M09, N-(3-Aminopropyl)-N-{(1R)-1-[1-benzyl-4-(2,5-difluorophenyl)-1H-pyrrol-2-yl]-2,2-dimethylpropyl}-2-hydroxyacetamide] |  |  |  | 0.03 | 0.03
3 | CC(C)(C)[C@H](c1cc(-c2cc(F)ccc2F)cn1Cc1ccccc1)N(CC[C@H](N)C(=O)NCCNC(=O)CNC(=O)C[C@@H](SC[C@H](N)C(=O)O)C(=O)O)C(=O)CO (racemic) [Example M26, 4-[(2-{[2-({(2S)-2-Amino-4-[{(1R)-1-[1-benzyl-4-(2,5-difluorophenyl)-1H-pyrrol-2-yl]-2,2-dimethylpropyl}(glycoloyl)amino]butanoyl}amino)ethyl]amino}-2-oxoethyl)amino]-2-{[(2R)-2-amino-2-carboxyethyl]sulfanyl}-4-oxobutanoic acid-trifluoroacetic acid (1:1)] | 63.8 | 1.3 |  |  | 
